# In patent US20050233984A1, “Composition for preventing or treating degenerative brain diseases comprising a hydrolysate of ginsenosides” (Digital Biotech Co., Ltd., priority 2002, published 2005):
# Experiments:
# [1] = tested on: neuroblastoma B103 cell line; assay: MTT test: apoptosis induced by staurosporin; assay type: cell-based; conditions: B103 cells, staurosporin-only control = 100%
# Description: (§1) 5×10^3 cells of neuroblastoma B103 cell line (donated by Dr. David Schubert of the Salk Institute, USA) were placed in each well of a 96-well plate with 100 μl of DMEM (Dulbecco's Minimal Eagle's Medium) containing 10% fetal bovine serum (FBS), and cultured at 37° C. under 8% CO2 for 1 day. After changing the medium to serum-free DMEM, the cells were treated with various concentrations of test compounds and, 1 hour later, with 25 μM of beta-amyloid (25-35 peptide; US peptide, CA, USA). The cells were cultured at 37° C. for 18 hours, treated with 15 μl of MTT solution [10 mg/ml solution of 3-(4,5-dimethyl-2-thiazolyl)-2,5-diphenyl-2H-tetrazolium bromide in phosphate buffered saline (PBS)], and allowed to react at 37° C. for 3 to 4 hours. 100 μl of lysis buffer (10% SDS, 50% dimethylformamide, pH 4.7) was added to the wells, and the cells were cultured overnight at room temperature and relative humidity of 90%. Optical density (OD) of each well was measured at […] and 630 nm, respectively, using a scanning multiwell spectrophotometer, and then the OD value at 630 nm was subtracted from that at 570 nm.
# Further, in order to examine whether compounds originating from ginseng can block apoptosis, […], and the survival rates of the neural cells were determined.
# mice = assay: Morris water maze test (spatial learning); assay type: in vivo; conditions: versus control group, FIG. 6
# [2] = tested on: neuroblastoma B103 cell line; assay: MTT test: preventing the toxicity of beta-amyloid; assay type: cell-based; conditions: B103 cells, beta-amyloid-only control = 100%
# Description: In order to examine the activities of the compounds prepared in the Reference Example in preventing the toxicity of beta-amyloid, the MTT analysis (Gillardon, F. et al., Brain Research. No. 6: pp. 169-172 (1996)) was carried out as follows.
# as §1, with “After changing the medium to serum-free DMEM, the cells were treated with various concentrations of test compounds and, 1 hour later, with 25 μM of beta-amyloid (25-35 peptide; US peptide, CA, USA).” left out
# Setting the survival rate of the control group treated only with beta-amyloid as 100%, relative survival rates of the experimental groups treated with compound Y, ginsenosides Mc and Rc, PPD and PPT, respectively, were calculated, and the results are shown in Table 2 and FIG. 1. The obtained values were statistically significant.
# When the same procedure as above was repeated except that the cells were treated simultaneously with the test compound and beta-amyloid, or treated with the test compound one hour after the beta-amyloid treatment, the results were almost the same as above.
# Further, in order to assess the concentration-dependent activity of a test compound, the above procedure was repeated using PPT at concentrations ranging from […].
# [3] = Degree of BBB penetration: pharmacokinetics in blood and brain by LC-mass; assay type: in vivo, Sprague-Dawley rat; conditions: SD rat; for migration into the brain (in words): 1 mg/kg intravenous Rg1 or Rb1
# Description: A male Sprague-Dawley rat (weight 250-300 g) was lightly anesthetized with ether and catheterized with a polyethylene tube (PE-50) in the femoral artery and vein. After the rat recovered, a saline solution containing 1 mg/kg of Rg1 or Rb1 was administered into the femoral vein through the intravenous bolus administration. 300 μl blood samples were collected from the rat's femoral artery at 2, 5, 10, 15, 20, 30, 45 and 60 minutes after the administration. Each blood sample was centrifuged to obtain 100 μl of plasma. A plasma sample was prepared as in (2) of step 1 with the plasma. 20 μl of the sample was injected into the LC mass system as in Step 1, and ginsenosides Rg1 and Rb1 and their metabolites PPD and PPT were quantified. The plasma concentrations of ginsenosides and their metabolites were calculated in the forms of weight per plasma (ml) (in case of ginsenosides) or peak size (in case of metabolites).
# Immediately after collecting the blood samples, the rats were decapitated and brain tissues were obtained therefrom. The tissues were rinsed with ice-cooled saline, placed in a 15 ml Falcon tube and then weighed precisely. Acetonitrile was added to the tube in an amount twice the weight of the tissue sample, and the sample was homogenized using a tissue homogenizer (Ultra-Turrax T25, JANKE&KUNKEL IKA-Labortechnik). The mixture was centrifuged at 3,000 rpm for 20 minutes. 300 μl of the resulting supernatant was dried in a speed-vac, and 300 μl of acetonitrile was added thereto. 20 μl of the resulting mixture was injected in the LC mass system as in Step 1 to quantify the concentrations of ginsenosides and their metabolites in the brain, and the measured concentrations were represented by weight per gram of the brain tissue or peak size.
# Separation and detection conditions for ginsenosides Rg1 and Rb1 were as described in Step 1, and those for metabolites PPD and PPT were as follows:
# The transfer rate of the substances into the brain (Kbrain) can be represented by the ratio of the mean concentration of the substance in the brain (Cmean,brain) to the mean plasma concentration (Cmean,plasma) as in Equation 1. [formula]
# The mean concentration of a substance can be determined by dividing the area under the concentration-time curve corresponding to time 0 to t by t and, accordingly, the transfer rate of the substance into the brain (Kbrain) can be calculated by Equation 2 shown below. [formula]
# [4] = test compound 1 μM + 0.1 μM staurosporin
# [5] = test compound 1 μM alone, without staurosporin
# [6] = test compound 1 μM + 25 μM beta-amyloid (25-35), 18 hours
# [7] = test compound 1 μM alone, without beta-amyloid
Structure (SMILES),"Survival rate (%) [1, 4]","Survival rate (%) [1, 5]",time to reach the platform (mice),"Survival rate (%) [2, 6]","Survival rate (%) [2, 7]","Survival rate (%) ([2]; test compound 10 μM + 25 μM beta-amyloid (25-35), 18 hours)","Survival rate (%) ([2]; test compound 10 μM alone, without beta-amyloid)",migration into the brain (in words) [3],"concentration in the brain as compared with that in the plasma ([3]; 1 mg/kg intravenous bolus, until 60 min., FIG. 11b)","concentration in the brain ([3]; 1 mg/kg intravenous bolus of the ginsenoside, FIG. 11a)"
CC(C)=CCC[C@](C)(O[C@@H]1O[C@H](CO[C@@H]2O[C@@H](CO)[C@H](O)[C@H]2O)[C@@H](O)[C@H](O)[C@H]1O)[C@H]1CC[C@]2(C)[C@@H]1[C@H](O)C[C@@H]1[C@@]3(C)CC[C@H](O)C(C)(C)[C@@H]3CC[C@]12C [Ginsenoside Mc],101.1 ± 2.7%,178.6 ± 6.3%,much shorter time to reach the platform,106.1 ± 2.4%,148.0 ± 6.3%,–,–,–,–,–
CC(C)=CCC[C@](C)(O[C@@H]1O[C@H](CO[C@@H]2O[C@@H](CO)[C@H](O)[C@H]2O)[C@@H](O)[C@H](O)[C@H]1O)[C@H]1CC[C@]2(C)[C@@H]1[C@H](O)C[C@@H]1[C@@]3(C)CC[C@H](O[C@@H]4O[C@H](CO)[C@@H](O)[C@H](O)[C@H]4O[C@@H]4O[C@H](CO)[C@@H](O)[C@H](O)[C@H]4O)C(C)(C)[C@@H]3CC[C@]12C [Ginsenoside Rc],97.0 ± 4.8%,191.4 ± 4.9%,much shorter time to reach the platform,106.0 ± 0.9%,161.0 ± 4.9%,107.2 ± 1.9%,126.7 ± 3.7%,–,–,–
"CC(C)=CCC[C@](C)(O[C@@H]1O[C@H](CO[C@@H]2O[C@H](CO)[C@@H](O)[C@H](O)[C@H]2O)[C@@H](O)[C@H](O)[C@H]1O)[C@H]1CC[C@]2(C)[C@@H]1[C@H](O)C[C@@H]1[C@@]3(C)CC[C@H](O[C@@H]4O[C@H](CO)[C@@H](O)[C@H](O)[C@H]4O[C@@H]4O[C@H](CO)[C@@H](O)[C@H](O)[C@H]4O)C(C)(C)[C@@H]3CC[C@]12C [ginsenoside Rb1, reference compound]",–,–,–,–,–,–,–,do not migrate into the brain,below 5.8%,–
"CC(C)=CCC[C@](C)(O[C@@H]1O[C@H](CO)[C@@H](O)[C@H](O)[C@H]1O)[C@H]1CC[C@]2(C)[C@@H]1[C@H](O)C[C@@H]1[C@@]3(C)CC[C@H](O)C(C)(C)[C@@H]3[C@@H](O[C@@H]3O[C@H](CO)[C@@H](O)[C@H](O)[C@H]3O)C[C@]12C [ginsenoside Rg1, reference compound]",–,–,–,–,–,–,–,do not migrate into the brain,–,below the detectable level
